pIC50: −log10 of the molar value.
target: T1, MecA (Staphylococcus aureus, UniProt Q7DHH4); experiment: Binding affinity against PBP2a receptor by competition analysis with [3H]benzylpenicillin using cell membrane fractions from the MRSA COL strain.
T1 sequence (Q7DHH4 whole entry): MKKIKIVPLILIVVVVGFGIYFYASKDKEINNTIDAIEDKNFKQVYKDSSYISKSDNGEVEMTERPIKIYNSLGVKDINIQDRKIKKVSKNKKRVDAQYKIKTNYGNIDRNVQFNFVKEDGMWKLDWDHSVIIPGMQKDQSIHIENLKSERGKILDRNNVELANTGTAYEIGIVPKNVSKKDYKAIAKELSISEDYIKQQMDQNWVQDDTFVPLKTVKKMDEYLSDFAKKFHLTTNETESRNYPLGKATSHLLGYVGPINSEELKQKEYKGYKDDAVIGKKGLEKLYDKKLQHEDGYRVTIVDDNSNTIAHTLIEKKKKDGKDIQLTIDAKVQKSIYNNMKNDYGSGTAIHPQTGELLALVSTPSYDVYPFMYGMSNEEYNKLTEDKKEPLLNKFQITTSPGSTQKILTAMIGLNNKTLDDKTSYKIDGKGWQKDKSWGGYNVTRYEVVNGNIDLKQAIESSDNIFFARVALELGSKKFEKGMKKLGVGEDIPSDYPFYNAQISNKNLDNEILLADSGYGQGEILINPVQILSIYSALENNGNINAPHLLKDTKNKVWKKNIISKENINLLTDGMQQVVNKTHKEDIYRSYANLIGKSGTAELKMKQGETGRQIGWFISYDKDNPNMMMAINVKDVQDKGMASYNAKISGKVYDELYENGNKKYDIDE

Row | Compound | pIC50
1 | C[C@@H](O)[C@H]1C(=O)N2C(C(=O)O)=C(c3ccc4c(c3)-c3ccc(C[N+]56CC[N+](CCCO)(CC5)CC6)cc3C4=O)C[C@H]12.[Cl-].[Cl-] | 5.90
2 | C[C@@H](O)[C@H]1C(=O)N2C(C(=O)O)=C(c3ccc4c(c3)-c3ccc(C[N+]56CC[N+](CC(=O)c7ccccc7)(CC5)CC6)cc3C4=O)[C@H](C)[C@H]12.[Cl-].[Cl-] | 6.06
3 | CCC[N+]12CC[N+](Cc3ccc4c(c3)C(=O)c3ccc(C5=C(C(=O)O)N6C(=O)[C@H]([C@@H](C)O)[C@H]6[C@H]5C)cc3-4)(CC1)CC2.[Cl-].[Cl-] | 6.04
4 | CC(C)NC(=O)C[N+]12CC[N+](Cc3ccc4c(c3)C(=O)c3ccc(C5=C(C(=O)O)N6C(=O)[C@H]([C@@H](C)O)[C@H]6[C@H]5C)cc3-4)(CC1)CC2.[Cl-].[Cl-] | 5.91
5 | C[C@@H](O)[C@H]1C(=O)N2C(C(=O)O)=C(c3ccc4c(c3)-c3ccc(C[N+]56CC[N+](CCO)(CC5)CC6)cc3C4=O)[C@H](C)[C@H]12.[Cl-].[Cl-] | 5.99
6 | C[C@@H](O)[C@H]1C(=O)N2C(C(=O)O)=C(c3ccc4c(c3)-c3ccc(C[N+]56CC[N+](CC(=O)Nc7ccc(O)cc7)(CC5)CC6)cc3C4=O)[C@H](C)[C@H]12.[Cl-].[Cl-] | 6.19
7 | COc1ccccc1NC(=O)C[N+]12CC[N+](Cc3ccc4c(c3)C(=O)c3ccc(C5=C(C(=O)O)N6C(=O)[C@H]([C@@H](C)O)[C@H]6[C@H]5C)cc3-4)(CC1)CC2.[Cl-].[Cl-] | 6.06
8 | C[C@@H](O)[C@H]1C(=O)N2C(C(=O)O)=C(c3ccc4c(c3)-c3ccc(C[N+]56CC[N+](CCCC(N)=O)(CC5)CC6)cc3C4=O)[C@H](C)[C@H]12.[Cl-].[Cl-] | 5.53
9 | C[C@@H](O)[C@H]1C(=O)N2C(C(=O)O)=C(c3ccc4c(c3)-c3ccc(C[N+]56CC[N+](CC(=O)Nc7cccnc7)(CC5)CC6)cc3C4=O)[C@H](C)[C@H]12.[Cl-].[Cl-] | 6.21
10 | C[C@@H](O)[C@H]1C(=O)N2C(C(=O)O)=C(c3ccc4c(c3)-c3ccc(C[N+]56CC[N+](CC(=O)Nc7nccs7)(CC5)CC6)cc3C4=O)[C@H](C)[C@H]12.[Cl-].[Cl-] | 6.07

test system: Staphylococcus sp.; experiment: Antibacterial activity against methicillin-resistant coagulase negative Staphylococci (MRCNS); assay type: functional

Row | Compound | MIC50 [µg/mL] | MIC90 [µg/mL]
11 | C[C@@H](O)[C@H]1C(=O)N2C(C(=O)O)=C(c3ccc4c(c3)-c3ccc(C[N+]56CC[N+](CCCO)(CC5)CC6)cc3C4=O)C[C@H]12.[Cl-].[Cl-] | 4 | 4
12 | C[C@@H](O)[C@H]1C(=O)N2C(C(=O)O)=C(c3ccc4c(c3)-c3ccc(C[N+]56CC[N+](CC(=O)c7ccccc7)(CC5)CC6)cc3C4=O)[C@H](C)[C@H]12.[Cl-].[Cl-] | 2 | 4
13 | C[C@@H](O)[C@H]1C(=O)N2C(C(=O)O)=C(c3ccc4c(c3)-c3ccc(C[N+]56CC[N+](CC(=O)N(C)C)(CC5)CC6)cc3C4=O)C[C@H]12.[Cl-].[Cl-] | 4 | 4
14 | CCC[N+]12CC[N+](Cc3ccc4c(c3)C(=O)c3ccc(C5=C(C(=O)O)N6C(=O)[C@H]([C@@H](C)O)[C@H]6[C@H]5C)cc3-4)(CC1)CC2.[Cl-].[Cl-] | 4 | 8
15 | CC(C)NC(=O)C[N+]12CC[N+](Cc3ccc4c(c3)C(=O)c3ccc(C5=C(C(=O)O)N6C(=O)[C@H]([C@@H](C)O)[C@H]6[C@H]5C)cc3-4)(CC1)CC2.[Cl-].[Cl-] | 4 | 8
16 | C[C@@H](O)[C@H]1C(=O)N2C(C(=O)O)=C(c3ccc4c(c3)-c3ccc(C[N+]56CC[N+](CCO)(CC5)CC6)cc3C4=O)[C@H](C)[C@H]12.[Cl-].[Cl-] | 4 | 8
17 | C[C@@H](O)[C@H]1C(=O)N2C(C(=O)O)=C(c3ccc4c(c3)-c3ccc(C[N+]56CC[N+](CC(=O)Nc7ccc(O)cc7)(CC5)CC6)cc3C4=O)[C@H](C)[C@H]12.[Cl-].[Cl-] | 1 | 4
18 | COc1ccccc1NC(=O)C[N+]12CC[N+](Cc3ccc4c(c3)C(=O)c3ccc(C5=C(C(=O)O)N6C(=O)[C@H]([C@@H](C)O)[C@H]6[C@H]5C)cc3-4)(CC1)CC2.[Cl-].[Cl-] | 2 | 4
19 | C[C@@H](O)[C@H]1C(=O)N2C(C(=O)O)=C(c3ccc4c(c3)-c3ccc(C[N+]56CC[N+](CCCC(N)=O)(CC5)CC6)cc3C4=O)[C@H](C)[C@H]12.[Cl-].[Cl-] | 4 | 8
20 | C[C@@H](O)[C@H]1C(=O)N2C(C(=O)O)=C(c3ccc4c(c3)-c3ccc(C[N+]56CC[N+](CC(=O)Nc7cccnc7)(CC5)CC6)cc3C4=O)[C@H](C)[C@H]12.[Cl-].[Cl-] | 2 | 4
21 | COC(=O)C[N+]12CC[N+](Cc3ccc4c(c3)C(=O)c3ccc(C5=C(C(=O)O)N6C(=O)[C@H]([C@@H](C)O)[C@H]6C5)cc3-4)(CC1)CC2.[Cl-].[Cl-] | 16 | 16
22 | C[C@@H](O)[C@H]1C(=O)N2C(C(=O)O)=C(c3ccc4c(c3)-c3ccc(C[N+]56CC[N+](CC(=O)Nc7nccs7)(CC5)CC6)cc3C4=O)[C@H](C)[C@H]12.[Cl-].[Cl-] | 4 | 8
23 | CC(=O)C[N+]12CC[N+](Cc3ccc4c(c3)C(=O)c3ccc(C5=C(C(=O)O)N6C(=O)[C@H]([C@@H](C)O)[C@H]6C5)cc3-4)(CC1)CC2.[Cl-].[Cl-] | 4 | 4
24 | C[C@@H](O)[C@H]1C(=O)N2C(C(=O)O)=C(c3ccc4c(c3)-c3ccc(C[N+]56CC[N+](CC(=O)c7ccccc7)(CC5)CC6)cc3C4=O)C[C@H]12.[Cl-].[Cl-] | 2 | 4
25 | CNC(=O)C[N+]12CC[N+](Cc3ccc4c(c3)C(=O)c3ccc(C5=C(C(=O)O)N6C(=O)[C@H]([C@@H](C)O)[C@H]6C5)cc3-4)(CC1)CC2.[Cl-].[Cl-] | 2 | 4

test system: Staphylococcus aureus; experiment: Antibacterial activity against methicillin-resistant Staphylococcus aureus (MRSA); assay type: functional

Row | Compound | MIC50 [µg/mL] | MIC90 [µg/mL]
26 | C[C@@H](O)[C@H]1C(=O)N2C(C(=O)O)=C(c3ccc4c(c3)-c3ccc(C[N+]56CC[N+](CCCO)(CC5)CC6)cc3C4=O)C[C@H]12.[Cl-].[Cl-] | 2 | 8
27 | C[C@@H](O)[C@H]1C(=O)N2C(C(=O)O)=C(c3ccc4c(c3)-c3ccc(C[N+]56CC[N+](CC(=O)c7ccccc7)(CC5)CC6)cc3C4=O)[C@H](C)[C@H]12.[Cl-].[Cl-] | 1 | 2
28 | C[C@@H](O)[C@H]1C(=O)N2C(C(=O)O)=C(c3ccc4c(c3)-c3ccc(C[N+]56CC[N+](CC(=O)N(C)C)(CC5)CC6)cc3C4=O)C[C@H]12.[Cl-].[Cl-] | 4 | 4
29 | CCC[N+]12CC[N+](Cc3ccc4c(c3)C(=O)c3ccc(C5=C(C(=O)O)N6C(=O)[C@H]([C@@H](C)O)[C@H]6[C@H]5C)cc3-4)(CC1)CC2.[Cl-].[Cl-] | 4 | 4
30 | CC(C)NC(=O)C[N+]12CC[N+](Cc3ccc4c(c3)C(=O)c3ccc(C5=C(C(=O)O)N6C(=O)[C@H]([C@@H](C)O)[C@H]6[C@H]5C)cc3-4)(CC1)CC2.[Cl-].[Cl-] | 2 | 4
31 | C[C@@H](O)[C@H]1C(=O)N2C(C(=O)O)=C(c3ccc4c(c3)-c3ccc(C[N+]56CC[N+](CCO)(CC5)CC6)cc3C4=O)[C@H](C)[C@H]12.[Cl-].[Cl-] | 4 | 4
32 | C[C@@H](O)[C@H]1C(=O)N2C(C(=O)O)=C(c3ccc4c(c3)-c3ccc(C[N+]56CC[N+](CC(=O)Nc7ccc(O)cc7)(CC5)CC6)cc3C4=O)[C@H](C)[C@H]12.[Cl-].[Cl-] | 0.5 | 1
33 | COc1ccccc1NC(=O)C[N+]12CC[N+](Cc3ccc4c(c3)C(=O)c3ccc(C5=C(C(=O)O)N6C(=O)[C@H]([C@@H](C)O)[C@H]6[C@H]5C)cc3-4)(CC1)CC2.[Cl-].[Cl-] | 1 | 2
34 | C[C@@H](O)[C@H]1C(=O)N2C(C(=O)O)=C(c3ccc4c(c3)-c3ccc(C[N+]56CC[N+](CCCC(N)=O)(CC5)CC6)cc3C4=O)[C@H](C)[C@H]12.[Cl-].[Cl-] | 4 | 4
35 | C[C@@H](O)[C@H]1C(=O)N2C(C(=O)O)=C(c3ccc4c(c3)-c3ccc(C[N+]56CC[N+](CC(=O)Nc7cccnc7)(CC5)CC6)cc3C4=O)[C@H](C)[C@H]12.[Cl-].[Cl-] | 1 | 2
36 | COC(=O)C[N+]12CC[N+](Cc3ccc4c(c3)C(=O)c3ccc(C5=C(C(=O)O)N6C(=O)[C@H]([C@@H](C)O)[C@H]6C5)cc3-4)(CC1)CC2.[Cl-].[Cl-] | 8 | 16
37 | C[C@@H](O)[C@H]1C(=O)N2C(C(=O)O)=C(c3ccc4c(c3)-c3ccc(C[N+]56CC[N+](CC(=O)Nc7nccs7)(CC5)CC6)cc3C4=O)[C@H](C)[C@H]12.[Cl-].[Cl-] | 2 | 4
38 | CC(=O)C[N+]12CC[N+](Cc3ccc4c(c3)C(=O)c3ccc(C5=C(C(=O)O)N6C(=O)[C@H]([C@@H](C)O)[C@H]6C5)cc3-4)(CC1)CC2.[Cl-].[Cl-] | 2 | 8
39 | C[C@@H](O)[C@H]1C(=O)N2C(C(=O)O)=C(c3ccc4c(c3)-c3ccc(C[N+]56CC[N+](CC(=O)c7ccccc7)(CC5)CC6)cc3C4=O)C[C@H]12.[Cl-].[Cl-] | 2 | 4
40 | CNC(=O)C[N+]12CC[N+](Cc3ccc4c(c3)C(=O)c3ccc(C5=C(C(=O)O)N6C(=O)[C@H]([C@@H](C)O)[C@H]6C5)cc3-4)(CC1)CC2.[Cl-].[Cl-] | 2 | 8

— ChEMBL document CHEMBL1131884, “Dicationic 2-fluorenonylcarbapenems: potent anti-MRS agents with improved solubility and pharmacokinetic properties” (Bioorg Med Chem Lett, 1999)
